Assay results from article PMC10179701, “Towards Protection of Nucleic Acids from Herbicide Attack: Self-Assembly of Betaines Based on Pillar[5]arene with Glyphosate and DNA” (International Journal of Molecular Sciences, 2023).
“And” between values parts separate entries of the source, which are not always exact repeats. Identical values can stand only once.

Experiments:
[1] = Dynamic light scattering of macrocycle aggregates in water; assay type: physicochemical; details: H2O, 298 K
Experimental: The next stage of the work was the study of aggregation properties of both previously synthesized ester derivatives of amino acids 1 and 2, and macrocyclic betaine derivatives 3 and 4 by dynamic light scattering (DLS). The study was carried out in water in the 1 × 10^–6–1 × 10^–4 M concentration range (Figures S11–S22). The size of associates increases with decreasing macrocycle 1 concentration in solution (Table 1). A different pattern is observed for betaine derivative 3. Thus, the particles become coarser, and the polydispersity index (PDI) of the systems increased with an increase in compound 3 concentration, which is probably due to the formation of β-sheets by oligopeptide substituents. The presence of two oppositely charged fragments in one substituent leads to the fact that compound 3 becomes similar to surfactant molecules in terms of its aggregation properties.

[2] = Dynamic light scattering of (macrocycle-DNA)-GIS associates in Tris-HCl buffer; assay type: physicochemical; details: CPA 3 × 10^–6 M, CDNA 2.5 × 10^–7 M, CGIS 3 × 10^–6 M
From the text: The obtained (macrocycle-DNA)-GIS associates were also studied by DLS in Tris-HCl buffer solution. The concentration of each component of the mixture was the same as in the experiments performed by UV-Vis spectroscopy (CPA = 3 × 10^–6 M, CDNA = 2.5 × 10^–7 M, CGIS = 3 × 10^–6 M). The formation of the stable aggregates (d = 183 ± 5 nm, PDI = 0.19, and ζ = –22.2 mV) was found only for the system based on macrocycle 2 with phenylalanine ester fragments (Figure S33). […] This, apparently, leads to the formation of stable aggregates in the case of the three-component (macrocycle-DNA)-GIS systems. The associate’s formation for three-component (2–DNA)–GIS system was additionally confirmed by TEM (Figure 8). It was shown that spherical nanosized particles with sizes close to those determined by DLS are formed.

[3] = Transmission electron microscopy of aggregates; assay type: physicochemical; details: 1 × 10^−4 M in water
From the text: The nanosized aggregates formed by macrocycle 2 were studied by transmission electron microscopy (TEM). The formation of the spherical nanosized particles with sizes close to those determined by DLS was confirmed.

A549 cells [4] = assay: MTT test, A549 cells
Experimental: (§1) The next stage of this work was the study of pillar[5]arenes 1–4 ability to inhibit the viability and proliferative activity of embryonic lung epithelial (LEC) and human lung adenocarcinoma (A549) cells using the MTT test.
(§2) Further, the ability of GIS to inhibit the viability and proliferative activity of LEC and A549 cells was studied by the MTT test. […] The average inhibitory concentration (IC50) was calculated for GIS (Table 3). […]
(§3) 1.6. Cytotoxicity of pillar[5]arenes 1–4, GIS and their mixtures on A549 and LEC Cell Lines […]
(§4) activity of LEC cells and A549 cells was investigated using the MTT test according to [2]. A549 – human alveolar adenocarcinoma cell line (ATCC, Rockville, Maryland, USA) and cow embryo lung epithelial (LEC) cells (Animal Cell Culture Collection of Russian Academy of Agricultural Science, Kazan, Russia) were cultured in DMEM (GIBCO, Waltham, MA, USA) medium supplemented with 10% serum and 100 units/mL of penicillin (PanEco, Moscow, Russia) and streptomycin (PanEco, Moscow, Russia) in a humidified atmosphere with 5% CO2 at 37 °C. Cells were seeded in 96‐well plates at a concentration of 10^4 cells/well. After 24 h of cultivation, the medium was removed from the wells and replaced with a fresh one with the addition of the test substances. The volume of the culture medium in the wells was 100
(§5) μL. After 24 h incubation of cells in the presence of substances, the medium in the wells was replaced with a fresh one containing MTT reagent at a final concentration of 0.5 mg/mL. The cells were incubated with MTT for 4 h at 37 °C in an atmosphere of 5% CO2. Then, the medium was aspirated from the wells and 100 μL of dimethyl sulfoxide was added. Probes were incubated at 37 °C for 15 min in the dark for the formazan crystals to dissolve. The optical density of the formazan solution in the wells was measured using a plate reader (BioRad xMarkTM Microplate Spectrophotometer, USA) at a wavelength of 570 nm.
(§6) Three series of experiments were carried out with at least 8 replications for each variant in the series. […]

LEC cells [5] = assay: MTT test, LEC cells
Experimental: as §1, §2, §3, §4, §5, §6

A549 cells [6] = assay: Apoptosis induction by flow cytometry (DiOC6/PI), A549 cells; assay type: cell-based, human; details: A549, 25 μg/mL, 24 h
Experimental: (§7) The cytotoxic effect of pillar[5]arene 2 containing ester fragments of phenylalanine is probably due to the stable aggregates’ formation (Table 1). […] The agent concentration of 25 μg/mL was chosen for the experiment. […] The apoptosis-inducing effect of compound 2 on A549 and LEC cells turned out approximately the same. […]
(§8) buffer solution. The UV spectra of the solutions were then recorded. The stability constant of complex was calculated by Bindfit. Three independent experiments were carried out for each series. […]
(§9) volume of 3 mL with Tris‐HCl buffer solution. The UV spectra of the solutions were then recorded. The stability constant of each complex was calculated by Bindfit. Three independent experiments were carried […]
(§10) stability constant of complex was calculated by Bindfit. Three independent experiments were carried out […]
(§11) humidified atmosphere with 5% CO2 at 37 °C. […]
(§12) fresh one with the addition of the test substances.
(§13) Then, the medium was aspirated from the wells and 100 μL of dimethyl sulfoxide was added. […]
(§14) the formazan crystals to dissolve.
(§15) BD FACSCanto II flow cytometer. […]
(§16) humidified atmosphere with 5% CO2. […]
(§17) substances. […] After 24 h of incubation cells were […]

LEC cells [7] = assay: Apoptosis induction by flow cytometry (DiOC6/PI), LEC cells; assay type: cell-based, cow; details: 25 μg/mL, 24 h
Experimental: as §7, §8, §9, §10, §11, §12, §13, §14, §15, §16, §17

A549 cells [8] = assay: MTT assay, combined action of macrocycles with GIS on A549 cells; assay type: cell-based, human; details: A549, pillararene 1 × 10^–5 M with GIS 3.47 × 10^–2 M
Experimental: The ability to inhibit the viability and proliferative activity of A549 cells of macrocycles 1–4 in the presence of GIS was studied using the MTT assay. […] The developed approach opens up the possibility of creating pillar[5]arene-based herbicide antidotes. […]
as §12
Then, the medium was aspirated from the wells
and 100 μL of dimethyl sulfoxide was added.
the formazan crystals to dissolve. […]
as §17

CCOC(=O)[C@H](Cc1ccccc1)NC(=O)C[N+](C)(C)CCCNC(=O)COc1cc2c(OCC(=O)NCCC[N+](C)(C)CC(=O)N[C@@H](Cc3ccccc3)C(=O)OCC)cc1Cc1cc(OCC(=O)NCCC[N+](C)(C)CC(=O)N[C@@H](Cc3ccccc3)C(=O)OCC)c(cc1OCC(=O)NCCC[N+](C)(C)CC(=O)N[C@@H](Cc1ccccc1)C(=O)OCC)Cc1cc(OCC(=O)NCCC[N+](C)(C)CC(=O)N[C@@H](Cc3ccccc3)C(=O)OCC)c(cc1OCC(=O)NCCC[N+](C)(C)CC(=O)N[C@@H](Cc1ccccc1)C(=O)OCC)Cc1cc(OCC(=O)NCCC[N+](C)(C)CC(=O)N[C@@H](Cc3ccccc3)C(=O)OCC)c(cc1OCC(=O)NCCC[N+](C)(C)CC(=O)N[C@@H](Cc1ccccc1)C(=O)OCC)Cc1cc(OCC(=O)NCCC[N+](C)(C)CC(=O)N[C@@H](Cc3ccccc3)C(=O)OCC)c(cc1OCC(=O)NCCC[N+](C)(C)CC(=O)N[C@@H](Cc1ccccc1)C(=O)OCC)C2.[Br-].[Br-].[Br-].[Br-].[Br-].[Br-].[Br-].[Br-].[Br-].[Br-] [Compound 2]
polydispersity index (PDI) ([1]; 1 × 10^–4 M): 0.24 | size of aggregates d ([1]; 1 × 10^–4 M): 179 nm and 179 ± 8 nm | zeta potential ζ ([1]; 1 × 10^–4 M): +15.9 mV | polydispersity index (PDI) ([1]; 1 × 10^–5 M): 0.21 | size of aggregates d ([1]; 1 × 10^–5 M): 157 ± 2 nm | zeta potential ζ ([1]; 1 × 10^–5 M): +31.6 mV | polydispersity index (PDI) ([1]; 1 × 10^–6 M): 0.28 | size of aggregates d ([1]; 1 × 10^–6 M): 144 nm and 144 ± 7 nm | zeta potential ζ ([1]; 1 × 10^–6 M): +12.5 mV | PDI of three-component (macrocycle-DNA)-GIS system [2]: 0.19 | size of aggregates d of three-component (macrocycle-DNA)-GIS system [2]: 183 ± 5 nm | zeta potential ζ of three-component (macrocycle-DNA)-GIS system [2]: –22.2 mV | average diameter of particles (TEM) [3]: 50 nm | concentration at which viability was reduced (A549 cells [4]; A549): ≥ 5000 ng/mL | IC50 (A549 cells [4]; A549, MTT, 24 h): 29.67 µg/mL | concentration at which viability was reduced (LEC cells [5]): ≥ 5000 ng/mL | IC50 (LEC cells [5]; MTT, 24 h): 28.16 µg/mL | proportion of living cells (Live, percentage of stained cells) (A549 cells [6]): 74.8% | proportion of living cells (Live, percentage of stained cells) (LEC cells [7]): 72.7% | change of toxicity on combined action with GIS (A549 cells [8]): increase in toxicity
